Experiment [1] has as its system double stranded RNA dependent protein kinase (PKR) gene. Nature of the experiment: Induction of PKR mRNA in liver and spleen of mice, real time quantitative PCR. The format is in vivo, mouse. Here is the method:
The efficacy of HDV-interferon alpha was evaluated in a mouse model having a genetic marker response to the hepatic effect of interferon. C57B16 mice were obtained from Jackson Laboratory and a breeding colony was established at Cleveland MetroHealth Center, Cleveland, Ohio. Mice were obtained from the breeding colony. Two groups of mice, a test group and a control group, were treated. The test group received Interferon+HDV, while the control group received Interferon alone. HDV-Interferon comprised 100 mcg HDV to 10 mcg Interferon alpha. HDV was supplied by Hepasome Pharmaceuticals and Roeferon was the source of the interferon alpha. The HDV and interferon alpha were allowed to equilibrate for 12 hours prior to injection into the mice. Mice from both groups were dosed with 100,000 U/kg body wt. To test the timing of response to IFN, Roferon was subcutaneously injected into the mice. The mice were sacrificed at 6 hours after dosing. The spleen and liver of the sacrificed […] were obtained for analysis. […] The assay used real time quantitative PCR (polymerase chain reaction) to assay the level of PKR messenger ribonucleic acid (mRNA). […] The produced cDNAs were subjected to semi-quantitative PCR, the 6 hour time point was selected for the HDV experiments. […] Real time quantitative PCR was performed on the produced cDNAs using cybr green technology. […]

The next experiment concerns hepatitis C virus. The following applies: chronic hepatitis C; treatment with interferon alone; cited from earlier work.

The values that follow come from US20100129428A1, “SUPRA MOLECULAR CONSTRUCT FOR DELIVERY OF INTERFERON TO A MAMMAL” (SDG, Inc., priority 2005, published 2010).

As for interferon alpha, the “relative expression level in the spleen compared to the relative expression level in the liver” value in experiment [1] (PKR mRNA, C57B16 mice, 100,000 U/kg body wt, subcutaneous, 6 hours after dosing, FIG. 12a) is “approximately twice”. The “increase in PKR activation relative to a baseline” value in experiment [1] (hepatic PKR activation, mouse model, FIG. 13) was about 5 fold. Besides, the sustained response result in the experiment with hepatitis C virus was “less than 15 % of subjects”.
